Assay [1] concerns the target T1, human endothelial lipase (EL) (Homo sapiens, UniProt Q9Y5X9).
T1 construct: host or cells: cells expressing human endothelial lipase
T1 sequence (Q9Y5X9 21-500): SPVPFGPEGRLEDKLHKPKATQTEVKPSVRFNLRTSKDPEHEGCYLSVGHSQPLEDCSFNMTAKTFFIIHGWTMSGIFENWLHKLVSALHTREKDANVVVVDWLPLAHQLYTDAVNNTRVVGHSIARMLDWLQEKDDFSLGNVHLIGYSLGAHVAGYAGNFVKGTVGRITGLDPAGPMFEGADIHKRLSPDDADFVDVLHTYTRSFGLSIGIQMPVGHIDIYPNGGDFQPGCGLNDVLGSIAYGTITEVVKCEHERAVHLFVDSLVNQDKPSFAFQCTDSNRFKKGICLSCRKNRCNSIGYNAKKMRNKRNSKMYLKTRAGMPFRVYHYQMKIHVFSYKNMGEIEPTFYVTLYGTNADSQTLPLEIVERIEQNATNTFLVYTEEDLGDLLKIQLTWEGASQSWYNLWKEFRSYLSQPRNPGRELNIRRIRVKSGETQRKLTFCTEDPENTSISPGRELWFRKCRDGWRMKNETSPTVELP
As to the kind of experiment: Endothelial Lipase Assay, cell surface lipase activity (human). It is filed as cell-based. The note with it: cells expressing human EL, PLA1 substrate 10 μM, fluorescence reaction rate; several values in a cell are repeat determinations. As to the method: (§1) Endothelial Lipase Assay (Human/Mouse)
(§2) To assay for cell surface lipase activity, cells expressing human endothelial lipase (EL) or LPL were plated in CellBIND® 384-well plates (Corning, Lowell, Mass.) in 25 μL serum free medium at a density of 2000 cells/well. After 18-24 hours incubation at 37° C., the medium was removed and replaced with 15 μL assay buffer [Hank's Buffered Saline Solution with 25 mM HEPES pH 7.2] and 15 μL PLA1 for a final concentration of 10 μM using a Multidrop reagent dispenser. Fluorescence signal was monitored for 30 min at 37° C. on a Safire II plate reader in kinetic mode (60 cycles, kinetic interval: 30 seconds) with an excitation wavelength of 490 nm and an emission wavelength of 515 nm. Linear regression of the fluorescence intensity collected from 480 to 1500 seconds was used to calculate the reaction rate (the slope) and the slopes were used to calculate IC50 values where appropriate. The amount of BODIPY-labeled product generated was calculated at the 30 min time point as determined from standard curve analysis of purified BODIPY FL C5. In all studies using the inhibitor Ebelactone B, consistent results were obtained when it was dissolved as a stock in DMSO, immediately before use.

In assay [2] the target is T2, Mouse EL (Mus musculus, UniProt Q9WVG5).
T2 construct: host or cells: not described for mouse EL
T2 sequence (Q9WVG5 21-500): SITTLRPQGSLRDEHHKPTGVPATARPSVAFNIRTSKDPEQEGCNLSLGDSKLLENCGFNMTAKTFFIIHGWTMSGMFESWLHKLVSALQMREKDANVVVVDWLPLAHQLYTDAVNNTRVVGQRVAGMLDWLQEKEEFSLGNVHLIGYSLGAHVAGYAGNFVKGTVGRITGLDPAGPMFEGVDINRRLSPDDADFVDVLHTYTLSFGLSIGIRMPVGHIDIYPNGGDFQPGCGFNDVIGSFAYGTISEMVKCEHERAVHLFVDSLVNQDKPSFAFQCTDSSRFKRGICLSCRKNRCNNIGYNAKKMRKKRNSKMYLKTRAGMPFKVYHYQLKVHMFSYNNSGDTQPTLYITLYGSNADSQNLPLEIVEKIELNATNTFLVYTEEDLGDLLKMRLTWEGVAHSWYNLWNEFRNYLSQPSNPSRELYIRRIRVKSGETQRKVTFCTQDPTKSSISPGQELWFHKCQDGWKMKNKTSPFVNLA
As to the kind of experiment: Endothelial Lipase Assay, cell surface lipase activity (mouse). The class given is cell-based. The note with it: PLA1 substrate 10 μM, fluorescence reaction rate, several values in a cell are repeat determinations. As to the method: as §1, §2

Where “and” joins values, the source holds several entries; their conditions need not be identical. Equal values may be shown once.

One may read the IC50 as the concentration that inhibits the measured activity by half. A lower IC50 goes with greater potency in that assay.

Turning to `O=C(CCCCCCc1ccccc1)C(=O)NCc1nnc(-c2ccccc2)o1` [Compound 1, 2-oxo-8-phenyl-N-((5-phenyl-1,3,4-oxadiazol-2-yl)methyl)octanamide], the IC50 is 952 nM and 836 nM and 690 nM in assay [1]; 1050 nM and 864 nM and 708 nM in assay [2].
For `O=C(CCCCCCc1ccccc1)C(=O)NCc1nnc(-c2ccc(Cl)cc2)o1` [Compound 2], the IC50 in assay [1] was determined as 488 nM; in assay [2], 616 nM.
`COc1cccc(-c2nnc(CNC(=O)C(=O)CCCCCCc3ccccc3)o2)c1` [Compound 3] had an IC50 in assay [1] of 1100 nM.
Take `COc1ccc(-c2nnc(CNC(=O)C(=O)CCCCCCc3ccccc3)o2)cc1` [Compound 4]: half-maximal inhibition in assay [1] (IC50) required 640 nM.
The compound `O=C(CCCCCCc1ccccc1)C(=O)NCc1nnc(-c2ccccc2Cl)o1` [Compound 5] returned an IC50 in assay [1] of 663 nM.
For `COc1ccccc1-c1nnc(CNC(=O)C(=O)CCCCCCc2ccccc2)o1` [Compound 6], the IC50 in assay [1] came out at 2650 nM.
In assay [1], `O=C(CCCCCCc1ccccc1)C(=O)NCc1nnc(-c2ccc3c(c2)OCO3)o1` [Compound 7] registered an IC50 of 457 nM.
`O=C(CCCCCCc1ccccc1)C(=O)NCc1nnc(-c2ccccc2)[nH]1` [Compound 11] showed an IC50 in assay [1] of 10400 nM.
In the case of `O=C(CCCCCCc1ccccc1)C(=O)NCc1nnc(-c2ccccc2F)o1` [Compound 12], the IC50 was 2100 nM in assay [1] and 1760 nM in assay [2].
Take `O=C(CCCCCCc1ccccc1)C(=O)NCc1nnc(-c2ccc(F)cc2)o1` [Compound 15]: the IC50 in assay [1] is 735 nM; in assay [2], 1020 nM.
On to `O=C(CCCCCCc1ccccc1)C(=O)NCc1nnc(-c2ccc(-c3ccccc3)cc2)o1` [Compound 17], for which the IC50 in assay [1] was 3360 nM; in assay [2], 1880 nM.
The matching figures for `O=C(CCCCCCc1ccccc1)C(=O)NCc1nnc(-c2cccc(Cl)c2)o1` [Compound 18]: 440 nM and 346 nM.
For `O=C(CCCCCCc1ccccc1)C(=O)NCc1nnc(-c2ccc3c(=O)n4c(nc3c2)CCC4)o1` [Compound 19], the IC50 in assay [1] came out at 5380 nM; in assay [2], 3050 nM.
As for `O=C(CCCCCCc1ccccc1)C(=O)NCc1nnc(-c2ccc(F)c(F)c2)o1` [Compound 20], the values for the IC50 in assay [1] and in assay [2] were 490 nM and 552 nM, respectively.
For `O=C(CCCCCCc1ccccc1)C(=O)NCc1nnc(-c2cccc(C(F)(F)F)c2)o1` [Compound 21], the values for the IC50 in assay [1] and in assay [2] were 684 nM and 654 nM, respectively.
Consider `O=C(CCCCCCc1ccccc1)C(=O)NCc1nnc(-c2ccc(C(F)(F)F)cc2)o1` [Compound 22], for which the IC50 is 268 nM and 552 nM in assay [1]; 435 nM and 396 nM in assay [2].
For `CN(C)c1ccc(-c2nnc(CNC(=O)C(=O)CCCCCCc3ccccc3)o2)cc1` [Compound 24], the results for the IC50 in assay [1] and in assay [2] were 16600 nM and 20700 nM, respectively.
Turning to `Cc1ccc(-c2nnc(CNC(=O)C(=O)CCCCCCc3ccccc3)o2)cc1` [Compound 25], the IC50 was 353 nM and 319 nM and 468 nM in assay [1]; 333 nM and 235 nM and 269 nM in assay [2].
Consider `O=C(CCCCCCc1ccccc1)C(=O)NCc1nnc(-c2cc(F)cc(F)c2)o1` [Compound 26], for which the IC50 in assay [1] worked out at 668 nM; in assay [2], 436 nM.
For the compound `O=C(CCCCCCc1ccccc1)C(=O)NCc1nnc(-c2ccc3ccccc3c2)o1` [Compound 27], the IC50 in assay [1] was 293 nM and 129 nM; in assay [2], 225 nM and 184 nM.
For `O=C(CCCCCCc1cccc(F)c1)C(=O)NCc1nnc(-c2ccc3ccccc3c2)o1` [Compound 28], the IC50 stood at 224 nM in assay [1] and 127 nM in assay [2].
In the case of `O=C(CCCCCCc1ccc(F)cc1)C(=O)NCc1nnc(-c2ccc3ccccc3c2)o1` [Compound 30], the IC50 in assay [1] turned out to be 523 nM; in assay [2] it was 205 nM.
The matching figures for `COc1cccc(CCCCCCC(=O)C(=O)NCc2nnc(-c3ccc4ccccc4c3)o2)c1` [Compound 31]: 141 nM and 120 nM.
With `COc1cccc(CCCCCCC(=O)C(=O)NCc2nnc(-c3ccc(C)cc3)o2)c1` [Compound 32], the figures for the IC50 in assay [1] and in assay [2] were 213 nM and 165 nM, respectively.
On to `O=C(CCCCCc1ccccc1)C(=O)NCc1nnc(-c2ccccc2)o1` [Compound 33], for which the IC50 in assay [1] came to 3760 nM; in assay [2] it was 3350 nM.
With `O=C(CCCCCc1ccccc1)C(=O)NCc1nnc(-c2ccc3ccccc3c2)o1` [Compound 34], the IC50 was determined as 904 nM in assay [1] and 473 nM in assay [2].
In the case of `Cc1ccc(-c2nnc(CNC(=O)C(=O)CCCCCc3ccccc3)o2)cc1` [Compound 35], the IC50 in assay [1] stood at 1130 nM; in assay [2], 994 nM.
`O=C(CCCCCc1ccc(-c2ccccc2)cc1)C(=O)NCc1nnc(-c2ccc3ccccc3c2)o1` [Compound 36]: the IC50 amounted to 10200 nM in assay [1] and 6600 nM in assay [2].
The matching figures for `Cc1ccc(-c2nnc(CNC(=O)C(=O)CCCCCc3ccc(-c4ccccc4)cc3)o2)cc1` [Compound 37]: 2530 nM and 1470 nM.
Consider `O=C(CCCCCc1ccc(F)cc1)C(=O)NCc1nnc(-c2ccc3ccccc3c2)o1` [Compound 38], for which the IC50 was found to be 613 nM in assay [1] and 475 nM in assay [2].
Take `Cc1ccc(-c2nnc(CNC(=O)C(=O)CCCCCc3ccc(F)cc3)o2)cc1` [Compound 39]: the concentration for half-maximal inhibition (IC50) was determined as 643 nM in assay [1] and 772 nM in assay [2].
Consider `COc1cccc(C#CCCCC(=O)C(=O)NCc2nnc(-c3ccccc3)o2)c1` [Compound 40], for which the IC50 in assay [1] and in assay [2] was 33300 nM each time.
Regarding `COc1ccc(C#CCCCC(=O)C(=O)NCc2nnc(-c3ccccc3)o2)cc1` [Compound 41], the values for the IC50 in assay [1] and in assay [2] were 27200 nM and 24100 nM, respectively.
For `O=C(CCCCCCc1ccncc1)C(=O)NCc1nnc(-c2ccccc2)o1` [Compound 42], the IC50 was 4650 nM in assay [1] and 2730 nM in assay [2].
Take `O=C(CCCCC#Cc1ccccc1)C(=O)NCc1nnc(-c2ccccc2)o1` [Compound 43]: the results for the IC50 in assay [1] and in assay [2] were 2410 nM and 2650 nM, respectively.
In the case of `N#Cc1ccc(CCCCCCC(=O)C(=O)NCc2nnc(-c3ccccc3)o2)cc1` [Compound 44], the IC50 in assay [1] stood at 951 nM; in assay [2] it was 641 nM.
Turning to `N#Cc1ccc(C#CCCCCC(=O)C(=O)NCc2nnc(-c3ccccc3)o2)cc1` [Compound 45], the results for the IC50 in assay [1] and in assay [2] were 3470 nM and 2410 nM, respectively.
The matching figures for `O=C(CCCCCOc1ccccc1)C(=O)NCc1nnc(-c2ccccc2)o1` [Compound 46]: 8750 nM and 6510 nM.
The matching figures for `Cc1ccc(-c2nnc(CNC(=O)C(=O)CCCCCOc3ccccc3)o2)cc1` [Compound 47]: 3190 nM and 3030 nM.
The matching figures for `O=C(CCCCCOc1ccccc1)C(=O)NCc1nnc(-c2ccc3ccccc3c2)o1` [Compound 48]: 1960 nM and 1710 nM.
`O=C(CCCCCCc1cccc(OC(F)(F)F)c1)C(=O)NCc1nnc(-c2ccccc2)o1` [Compound 49]: the IC50 in assay [1] is 561 nM; in assay [2] it was 312 nM.
`O=C(CCCCCCc1ccc2nc(Cl)ccc2c1)C(=O)NCc1nnc(-c2ccccc2)o1` [Compound 50]: the IC50 was 564 nM in assay [1] and 267 nM in assay [2].
For `O=C(CCCCCNc1cccc(F)n1)C(=O)NCc1nnc(-c2ccccc2)o1` [Compound 171], in assay [1], the IC50 was 33000 nM.
Consider `O=C(CCCCCCc1ccccc1)C(=O)NCc1nnc(-c2cccnc2)o1` [Compound 177], for which the IC50 in assay [1] was 5220 nM.

These data come from US8476302B2, “α-ketoamide derivatives useful endothelial lipase inhibitors” (Janssen Pharmaceutica N.V., priority 2010, dated 2013).
